Reference: patent US8552220B2, “Therapeutic agent for Alzheimer's disease” (Tokyo Institute of Technology, priority 2008, dated 2013)

Molecule `CN(C)CCOc1ccc(Br)c(/C=C/C(=O)CC(=O)/C=C/c2ccc(O)cc2)c1` [CU552, (1E,6E)-1-[2-bromo-5-(2-dimethylaminoethoxy)phenyl]-7-(4-hydroxyphenyl)hepta-1,6-diene-3,5-dione] has a melting point of 163 to 167 °C.
Molecule `O=C(/C=C/c1ccc2cc[nH]c2c1)CC(=O)/C=C/c1cc(O)ccc1Br` [CU562, (1E,6E)-1-(2-bromo-5-hydroxyphenyl)-7-(1H-indol-6-yl)hepta-1,6-diene-3,5-dione] has a melting point of 196 to 200 °C.
`CS(=O)(=O)Oc1ccccc1/C=C/C(=O)CC(=O)/C=C/c1ccc(O)cc1` [CU483, (1E,6E)-1-(4-hydroxyphenyl)-7-[2-(methylsulfonyloxy)phenyl]hepta-1,6-diene-3,5-dione] gave a melting point of 163 to 167 °C.
Work on `O=C(/C=C/c1ccc(O)cc1)CC(=O)/C=C/c1ccccc1-c1cccc2ccccc12` [CU528, (1E,6E)-1-(4-hydroxyphenyl)-7-[2-(naphthalen-1-yl)phenyl]hepta-1,6-diene-3,5-dione] yielded a melting point of 95 to 101 °C.
With `O=C(/C=C/c1ccc(O)cc1)CC(=O)/C=C/c1cc(Cl)ccc1[N+](=O)[O-]` [CU465, (1E,6E)-1-(5-chloro-2-nitrophenyl)-7-(4-hydroxyphenyl)hepta-1,6-diene-3,5-dione] the melting point was 241 to 250 °C.
`COc1cc(Br)c(/C=C/C(=O)CC(=O)/C=C/c2ccc(O)cc2)cc1O` [CU543, (1E,6E)-1-(2-bromo-5-hydroxy-4-methoxyphenyl)-7-(4-hydroxyphenyl)hepta-1,6-diene-3,5-dione] gave a melting point of 224 to 229 °C.
With `CN(C)c1ccc(/C=C/C(=O)CC(=O)CCc2ccc(O)cc2)c([N+](=O)[O-])c1` [CU523, (E)-1-(4-dimethylamino-2-nitrophenyl)-7-(4-hydroxyphenyl)hept-1-ene-3,5-dione] the melting point was 136 to 142 °C.
For `O=C(/C=C/c1cc(O)ccc1Br)CC(=O)/C=C/c1cc(O)ccc1-c1ccccc1` [CU616, (1E,6E)-1-(2-bromo-5-hydroxyphenyl)-7-(4-hydroxybiphenyl-2-yl)hepta-1,6-diene-3,5-dione], the melting point was 101 to 104 °C.
For `O=C(/C=C/c1ccc(O)cc1)CC(=O)/C=C/c1ccccc1C(F)(F)F` [CU467, (1E,6E)-1-(4-hydroxyphenyl)-7-(2-trifluoromethylphenyl)hepta-1,6-diene-3,5-dione], the melting point was 181 to 185 °C.
With `O=C(/C=C/c1cc(O)ccc1-c1ccccc1)CC(=O)CCc1ccc(O)cc1` [CU541, (E)-1-(4-hydroxybiphenyl-2-yl)-7-(4-hydroxyphenyl)hept-1-ene-3,5-dione] the melting point was 148 to 158 °C.
Work on `COc1cc(O)ccc1/C=C/C(=O)CC(=O)/C=C/c1ccc(N(C)C)cc1[N+](=O)[O-]` [CU603, (1E,6E)-1-(4-dimethylamino-2-nitrophenyl)-7-(4-hydroxy-2-methoxyphenyl)hepta-1,6-diene-3,5-dione] yielded a melting point of 223 to 226 °C.
`O=C(/C=C/c1ccc2cc[nH]c2c1)CC(=O)/C=C/c1cc(OCc2ccccc2)ccc1-c1ccccc1` [CU566, (1E,6E)-1-(4-benzyloxybiphenyl-2-yl)-7-(1H-indol-6-yl)hepta-1,6-diene-3,5-dione] gave a melting point of 178 to 183 °C.
`COc1cc(O)ccc1/C=C/C(=O)CC(=O)/C=C/c1cc(OCc2ccccc2)ccc1[N+](=O)[O-]` [CU594, (1E,6E)-1-(5-benzyloxy-2-nitrophenyl)-7-(4-hydroxy-2-methoxyphenyl)hepta-1,6-diene-3,5-dione] showed a melting point of 183 to 186 °C.
`COc1cc(O)ccc1/C=C/C(=O)CC(=O)/C=C/c1cc(OCc2ccccc2)ccc1-c1ccccc1` [CU559, (1E,6E)-1-(4-benzyloxybiphenyl-2-yl)-7-(4-hydroxy-2-methoxyphenyl)hepta-1,6-diene-3,5-dione] gave a melting point of 175 to 180 °C.
In the case of `COc1cc(O)ccc1/C=C/C(=O)CC(=O)/C=C/c1ccccc1C(F)(F)F` [CU574, (1E,6E)-1-(4-hydroxy-2-methoxyphenyl)-7-(2-trifluoromethylphenyl)hepta-1,6-diene-3,5-dione], the melting point is reported as 176 to 180 °C.
`O=C(/C=C/c1cc(O)ccc1Br)CC(=O)/C=C/c1ccccc1C(F)(F)F` [CU615, (1E,6E)-1-(2-bromo-5-hydroxyphenyl)-7-(2-trifluoromethylphenyl)hepta-1,6-diene-3,5-dione] showed a melting point of 66 to 70 °C.
Work on `O=C(/C=C/c1ccc(O)cc1)CC(=O)/C=C/c1cc(Cl)ccc1-c1ccccc1` [CU641, (1E,6E)-1-(4-chlorobiphenyl-2-yl)-7-(4-hydroxyphenyl)hepta-1,6-diene-3,5-dione] yielded a melting point of 193 to 196 °C.
Molecule `[N-]=[N+]=Nc1ccccc1/C=C/C(=O)CC(=O)/C=C/c1ccc(O)cc1` [CU651, (1E,6E)-1-(2-azidophenyl)-7-(4-hydroxyphenyl)hepta-1,6-diene-3,5-dione] has a melting point of 153 to 161 °C.
`COc1cc(O)ccc1/C=C/C(=O)CC(=O)/C=C/c1cc(O)ccc1-c1ccccc1` [CU582, (1E,6E)-1-(4-hydroxybiphenyl-2-yl)-7-(4-hydroxy-2-methoxyphenyl)hepta-1,6-diene-3,5-dione] gave a melting point of 108 to 114 °C.
`COc1cc(O)ccc1/C=C/C(=O)CC(=O)/C=C/c1cc(O)ccc1[N+](=O)[O-]` [CU585, (1E,6E)-1-(4-hydroxy-2-methoxyphenyl)-7-(5-hydroxy-2-nitrophenyl)hepta-1,6-diene-3,5-dione] gave a melting point of 119 to 123 °C.
With `O=C(/C=C/c1ccc(O)cc1)CC(=O)/C=C/c1cc(O)ccc1-c1cccc2ccccc12` [CU538, (1E,6E)-1-[5-hydroxy-2-(naphthalen-1-yl)phenyl]-7-(4-hydroxyphenyl)hepta-1,6-diene-3,5-dione] the melting point was 215 to 221 °C.
`O=C(/C=C/c1ccc(O)cc1)CC(=O)/C=C/c1cc(O)c(Br)cc1Br` [CU544, (1E,6E)-1-(2,4-dibromo-5-hydroxyphenyl)-7-(4-hydroxyphenyl)hepta-1,6-diene-3,5-dione] gave a melting point of 255 to 259 °C.
Work on `O=C(/C=C/c1ccc(O)cc1Cl)CC(=O)/C=C/c1ccc(O)cc1Cl` [CU362, (1E,6E)-1,7-bis(2-chloro-4-hydroxyphenyl)hepta-1,6-diene-3,5-dione] yielded a melting point of 248 to 254 °C.
`COc1ccc(O)cc1/C=C/C(=O)CC(=O)/C=C/c1cc(O)ccc1Br` [CU608, (1E,6E)-1-(2-bromo-5-hydroxyphenyl)-7-(5-hydroxy-2-methoxyphenyl)hepta-1,6-diene-3,5-dione] gave a melting point of 90 to 96 °C.
`COc1cc(/C=C/C(=O)CC(=O)/C=C/c2ccc(O)cc2)c(Br)c(Br)c1O` [CU652, (1E,6E)-1-(2,3-dibromo-4-hydroxy-5-methoxyphenyl)-7-(4-hydroxyphenyl)hepta-1,6-diene-3,5-dione] showed a melting point of 215 to 218 °C.
For `O=C(/C=C/c1ccc(O)cc1)CC(=O)/C=C/c1cc(O)ccc1-c1ccccc1` [CU526, (1E,6E)-1-(4-hydroxybiphenyl-2-yl)-7-(4-hydroxyphenyl)hepta-1,6-diene-3,5-dione], the melting point was 179 to 186 °C.
`O=C(/C=C/c1ccc(O)cc1)CC(=O)/C=C/c1ccc(O)cc1Cl` [CU127, (1E,6E)-1-(2-chloro-4-hydroxyphenyl)-7-(4-hydroxyphenyl)hepta-1,6-diene-3,5-dione] gave a melting point of 131 to 138 °C.
Molecule `O=C(/C=C/c1ccc(O)cc1)CC(=O)/C=C/c1ccc(N2CCC(Cc3ccccc3)CC2)cc1Br` [CU1091, (1E,6E)-1-[4-(4-benzylpiperidin-1-yl)-2-bromophenyl]-7-(4-hydroxyphenyl)hepta-1,6-diene-3,5-dione] has a melting point of 155 to 161 °C.
Work on `CN(C)C(=O)c1ccccc1/C=C/C(=O)CC(=O)/C=C/c1ccc(O)cc1` [CU479, (1E,6E)-1-[2-(dimethylaminocarbonyl)phenyl]-7-(4-hydroxyphenyl)hepta-1,6-diene-3,5-dione] yielded a melting point of 210 to 218 °C.
Molecule `CN(C)c1ccc(/C=C/C(=O)CC(=O)/C=C/c2ccc3cc[nH]c3c2)c([N+](=O)[O-])c1` [CU592, (1E,6E)-1-(4-dimethylamino-2-nitrophenyl)-7-(1H-indol-6-yl)hepta-1,6-diene-3,5-dione] has a melting point of 196 to 201 °C.
`O=C(/C=C/c1ccc(O)cc1)CC(=O)/C=C/c1cc(OCc2c(F)cccc2Cl)ccc1[N+](=O)[O-]` [CU492, (1E,6E)-1-[5-(2-chloro-6-fluorobenzyloxy)-2-nitrophenyl]-7-(4-hydroxyphenyl)hepta-1,6-diene-3,5-dione] showed a melting point of 180 to 183 °C.
With `O=C(/C=C/c1ccc(O)cc1)CC(=O)/C=C/c1ccc(O)cc1Br` [CU671, (1E,6E)-1-(2-bromo-4-hydroxyphenyl)-7-(4-hydroxyphenyl)hepta-1,6-diene-3,5-dione] the melting point was 196 to 205 °C.
With `O=C(/C=C/c1ccc(O)cc1)CC(=O)/C=C/c1ccccc1Cl` [CU624, (1E,6E)-1-(2-chlorophenyl)-7-(4-hydroxyphenyl)hepta-1,6-diene-3,5-dione] the melting point was 158 to 161 °C.
Molecule `CCOC(=O)c1cnnn1-c1ccccc1/C=C/C(=O)CC(=O)/C=C/c1ccc(O)cc1` [CU626, (1E,6E)-1-[2-(5-ethoxycarbonyl-1H-1,2,3-triazol-1-yl)phenyl]-7-(4-hydroxyphenyl)hepta-1,6-diene-3,5-dione] has a melting point of 93 to 96 °C.
Molecule `O=C(/C=C/c1ccc(O)cc1)CC(=O)/C=C/c1cc(OCc2ccc(Cl)cc2Cl)ccc1[N+](=O)[O-]` [CU493, (1E,6E)-1-[5-(2,4-dichlorobenzyloxy)-2-nitrophenyl]-7-(4-hydroxyphenyl)hepta-1,6-diene-3,5-dione] has a melting point of 157 to 161 °C.
In the case of `O=C(/C=C/c1ccc(O)cc1)CC(=O)/C=C/c1ccccc1Br` [CU486, (1E,6E)-1-(2-bromophenyl)-7-(4-hydroxyphenyl)hepta-1,6-diene-3,5-dione], the melting point is reported as 155 to 159 °C.
`O=C(/C=C/c1ccc(O)cc1)CC(=O)/C=C/c1ccccc1C=Cc1ccccc1` [CU672, (1E,6E)-1-(4-hydroxyphenyl)-7-(2-styrylphenyl)hepta-1,6-diene-3,5-dione] gave a melting point of 119 to 128 °C.
`O=C(/C=C/c1ccc(O)cc1)CC(=O)/C=C/c1ccc(N2CCCCC2)cc1Br` [CU1090, (1E,6E)-1-[2-bromo-4-(piperidin-1-yl)phenyl]-7-(4-hydroxyphenyl)hepta-1,6-diene-3,5-dione] gave a melting point of 238 to 248 °C.
In the case of `COC(=O)c1ccccc1/C=C/C(=O)CC(=O)/C=C/c1ccc(O)cc1` [CU478, (1E,6E)-1-(4-hydroxyphenyl)-7-[2-(methoxycarbonyl)phenyl]hepta-1,6-diene-3,5-dione], the melting point is reported as 145 to 150 °C.
